Measured values reported in patent publication US20100041679A1, “ORAL DIETING COMPOSITION COMPRISING CONJUGATED LINOLEIC ACID AND CAFFEINE” (Institut Phytoceutic, priority 2004, published 2010).

Experiment: Additional study on 24 people with excess weight, formulations given orally, two sachets/day for one month, weight loss
Format: in vivo, human
Details: oral route
Protocol: An additional study was carried out on 24 people with excess weight, to whom the formulations of the following table were administered by the oral route, in an amount of two sachets/day for one month, without changing their dietary habits.

## Conjugated linoleic acid
  weight loss observed, significance in words: not significant
Dietary habits unchanged
  Weight loss observed (as % by weight): −1.8 (N.S.) % by weight
